Measured values published in patent US5162328A, “N-[3-[2-(1H-imidazol-1-yl)ethoxy]phenyl]-4-(2-thienyl)-2-pyrimidinamine and pharmacologically acceptable salts” (American Cyanamid Company, priority 1991, dated 1992).
Values joined by “and” are separate entries in the source; they are usually repeats but may differ in a detail not shown here. Equal entries are not always repeated.

Tests used:
[1] = tested on: immunologically stimulated human basophils; test: Inhibition of histamine release from immunologically stimulated human basophils; format: cell-based; details: Homo sapiens
Excerpt: The bronchospasm of allergic asthma is a consequence of the release of mediators, such as histamine and slow-reacting substances from mast cells. The role of mediator release in the induction of an asthmatic attack has been fully reviewed and documented; see […]. and Austen, K. F., Bronchial Asthma Mechanisms and Therapeutics, E. B. Weiss, Editor, Little, Brown and Company, Boston, 163, (1976); Lichtenstein, L. M., Asthma-Physiology, Immunopharmacology and Treatment, Second International Symposium, L. M. Lichtenstein and K. F. Austen, Editors, Academic Press, New York, 51, (1979); and Bell, S. C., et al., Annular Reports in Medicinal Chemistry, 14, 51, H. J. Hess, Editor, Academic Press, New York, (1979). The novel compounds of this invention have been tested by the procedure of Lichtenstein, L. M. and Osler, A. G., J. Exp. […] Dissolve 140.3 g of sodium chloride, 7.45 g of Trizma-Tris Pre-Set, Reagent Grade, pH 7.6 at 25° C. (Sigma Chemical Co.) in sufficient water to give a final volume of 2 liters. (Sigma chemical Co.) (30 mg/ml) Made to 0.075M and 0.5M respectively, with calcium chloride dihydrate and magnesium chloride hexahydrate. A 10 ml portion of 10× Tris Buffer and 1.0 ml of human albumin are diluted to 100 ml with water. A 10 ml portion of 10× Tris Buffer, 1.0 ml of human albumin, 0.8 ml of calcium stock and 0.2 ml of magnesium stock are diluted to 100 ml with water. Behring Diagnostics (Generally used at 10 μg protein/ml final concentration). Strength 1:100 (w:v) allergenic extract, Hollister-Stier Labs. Generally this is diluted 1:1000 to 1:10,000 (considering the vial as stock). Interdermal solutions or intramuscular preparations for hyposensitization, Hollister-Stier Labs. The final concentrations used are on the order of 1 PNU/ml. Using four 20 ml heparinized tubes, […] of blood are withdrawn from subjects with known histamine release to anti-IgE, ragweed antigen or other specific allergen. These 80 ml of blood are mixed with 20 ml of saline containing 0.6 g of dextrose and 1.2 g of dextran. The blood is allowed to sediment at room temperature in two 50 ml polycarbonate centrifuge tubes until a sharp interface develops between the red cells and plasma (60-90 minutes). The plasma, containing the leukocytes, (top) layer from each tube, is withdrawn by pipet and transferred to 50 ml polycarbonate tubes. The plasma is centrifuged for 8 minutes at 110× G at 4° C. The supernatant is carefully poured off as completely as possible and the cell button is resuspended in 2-3 ml of Tris-A buffer using a siliconized Pasteur pipet. The resuspension is accomplished by drawing the liquid gently in an out of the pipet, with the tip below the liquid until an even suspension of cells is obtained. […]

[2] = tested on: passive cutaneous anaphylaxis lesions in the rat; test: Rat Passive Cutaneous Anaphylaxis Assay (PCA); format: in vivo, rat (male Wistar strain); details: for Lesion Area (Low IgE): IgE 25 ng/site; for Lesion Area (Low IgE) / Lesion Area (High IgE): mean ± SD; for Lesion Area (High IgE): IgE 50 ng/site
Protocol: Solutions made by dissolving 0.50 g in 100 ml of normal saline. Mouse monoclonal IgE (ICN Biochemicals) clone SPE-7 directed against DNP is subdivided into 50 ul aliquots and stored at -70° C. DNP-ovalbumin is made by reacting DNP sulfonic acid with ovalbumin dissolved in saline overnight at room temperature. The resulting solution is dialyzed extensively at 4 C to remove unreacted DNPsulfonic acid and stored as 1 mL aliquots of 100 mg/ml at -70° C. Male Wistar strain rats, certified viral free, weighing 250-300 g are obtained from Hilltop Laboratory Animals and housed, in accordance with AALAC standards, on site for at least one week before use. Forty-eight hours before challenge the rats are shaved on the dorsal surfaces and returned to the cages. Twenty-four hours before challenge the rats are given intradermal injections of 0.1 mL, one on each flank, of saline containing IgE at concentrations ranging from 1000 to 250 ng/mL. These injections give a local dose of 100 to 25 ng IgE. The IgE binds to specific receptors on mast cells in the skin. […] To the Evan's blue dye is added sufficient DNP-ovalbumin to make a 1 mg/ml solution. This allergen containing dye is injected intravenously via a tail vein into the rats at 10 ml/Kg. The Evans' blue binds to plasma albumin and remains in the vascular space under conditions of normal capillary permeability. The allergen, which can diffuse into the extravascular space, binds to the IgE on the surface of the cutaneous mast cells and initiates the immediate hypersensitivity response which leads to the release of histamine by intracellular granules of the mast cell. The histamine causes an increase in capillary permeability which allows plasma proteins including the dye tagged albumin to diffuse into the extracellular space resulting in a blue spot in the skin. The size of the lesion is proportional to the amounts of mediators released. This process reaches an optimum in 30 minutes. Thirty minutes after challenge the rats are euthanized by CO2. The skin is reflected from the back and the lesion areas estimated as the product of the largest diameter of the bluespot and the diameter perpendicular to it. A compound which is a mediator release inhibitor will reduce the spot area. The effectiveness of the compounds is determined by Analysis of Variance of the lesion areas grouped by IgE dose and compound. Compounds are considered active at the P<0.05 level. Table II contains the results of the experiments expressed as the areas of the lesions in mm^2. The control lesions for these experiments are also listed. Because more than one compound at a time is tested, some of the control values are repeated in the table. Table III contains the data expressed as a % of the appropriate control.

[3] = 2.0 mg/kg PO 2 hrs, hydrochloride

In the case of `Cl.c1cc(Nc2nccc(-c3cccs3)n2)cc(OCCn2ccnc2)c1` [Compound 1, N-[3-[2-(1H-Imidazol-1-yl)ethoxy]phenyl]-4-(2-thienyl)-2-pyrimidinamine hydrochloride], the IC50 [1] is reported as 0.1 ± 0.01 µM, the “Lesion Area (Low IgE)” value ([2]; 0.125 mg/kg PO 2 hrs) is reported as 87 ± 16 mm^2 and the “Lesion Area (High IgE)” value ([2]; 0.125 mg/kg PO 2 hrs) is reported as 132 ± 20 mm^2. For the same compound, the “Lesion Area (Low IgE)” value ([2]; 0.25 mg/kg PO 2 hrs) was 92 ± 13 mm^2, the “Lesion Area (High IgE)” value ([2]; 0.25 mg/kg PO 2 hrs) was 127 ± 19 mm^2 and the “Lesion Area (High IgE)” value ([2]; 1.0 mg/kg PO 2 hrs, hydrochloride) was 115 ± 14 mm^2 and 100 ± 20 mm^2 and 129 ± 26 mm^2. For the same compound, the “Lesion Area (Low IgE)” value ([2]; 1.5 mg/kg PO 2 hrs) was 56 ± 22 mm^2, the “Lesion Area (High IgE)” value ([2]; 1.5 mg/kg PO 2 hrs) was 128 ± 43 mm^2 and the “% CONTROL (lesion area)” value ([2]; 1.5 mg/kg PO @ 2 hrs) was 41.8%. For the same compound, the “Lesion Area (Low IgE)” value [2, 3] was 71 ± 20 mm^2 and 76 ± 14 mm^2, the “Lesion Area (High IgE)” value [2, 3] was 103 ± 5 mm^2 and 119 ± 19 mm^2 and the “% CONTROL (lesion area)” value ([2]; 2 mg/kg PO @ 2 hrs, hydrochloride) was 56.8% and 43.3%. For the same compound, the “Lesion Area (Low IgE)” value ([2]; 2.5 mg/kg PO 2 hrs) was 8 ± 15 mm^2, the “Lesion Area (High IgE)” value ([2]; 2.5 mg/kg PO 2 hrs) was 17 ± 30 mm^2 and the “% CONTROL (lesion area)” value ([2]; 2.5 mg/kg PO @ 2 hrs) was 15.0%.
